For experiment [1], the system named is T-Rex 293 cell line SC3 cells having increased expression of androgen receptor protein due to exposure to doxycycline. The experiment is described as follows: Cellular growth inhibition, T-Rex 293 SC3 cells with doxycycline (androgen receptor induced), CellTiter-Glo. The experiment is classed as cell-based. To be noted: 72 h, T-Rex 293 SC3 cells with 10 ng/mL doxycycline (increased androgen receptor expression). An outline of the steps:
(§1)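 Cells of clone SC3 are seeded in charcoal-dextran-stripped serum medium with or without 10 ng/mL doxycycline to induce wild-type androgen receptor. After 24 h, serial compound dilutions are added at 0.5% DMSO and incubated 72 h at 37 °C. CellTiter-Glo 2.0 measures viability, giving GI50 values.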
(In general: In ATP-based viability assays light output follows the ATP content of the culture.)

Experiment [2] relates to T-Rex 293 cell line SC3 cells lacking increased expression of androgen receptor protein. The experiment is described as follows: Cellular growth inhibition, T-Rex 293 SC3 cells without doxycycline, CellTiter-Glo. To be noted: 72 h, T-Rex 293 SC3 cells not exposed to doxycycline, CellTiter-Glo 2.0. The experiment is classed as cell-based. An outline of the steps:
as §1

Experiment [3] relates to VCaP cells. The experiment is described as follows: Cellular growth inhibition assay for VCaP cells, CellTiter-Glo. The experiment is classed as cell-based, human. To be noted: Homo sapiens, VCaP, 72 h, 72 hours treatment, CellTiter-Glo 2.0. An outline of the steps:
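GI50 values come from four-parameter curve fits of luminescence data normalized to a zero baseline. Compound, in medium with 0.5% DMSO, was added one day after plating and left for 72 h before CellTiter-Glo 2.0 addition.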

Experiment [4] concerns T47D cells. Kind of experiment: Cellular growth inhibition assay for T47D cells, CellTiter-Glo. It counts as cell-based, human. To be noted: Homo sapiens, T47D, 72 h, 72 hours treatment, CellTiter-Glo 2.0 cell viability. An outline of the steps: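 Cells are plated at 3000/well and allowed 24 h before treatment. Test compound in medium containing 0.5% DMSO is then added, with DMSO-only wells as negative control, and plates are incubated 72 h at 37 °C. ATP luminescence (CellTiter-Glo 2.0) is then fitted to four parameters to derive GI50.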

In the case of `Cc1sc2c(c1C)C(c1ccc(O[C@H]3COC4(C3)CN(c3ncc(C(=O)N[C@H]5C(C)(C)[C@H](Oc6ccc(C#N)c(Cl)c6)C5(C)C)cn3)C4)cc1)=N[C@@H](Cc1ncco1)c1nnc(C)n1-2` [Compound I-181], the GI50 in experiment [1], in experiment [2], in experiment [3] and in experiment [4] was less than 500 nM in each case.
Regarding `Cc1sc2c(c1C)C(c1ccc(O[C@@H]3COC4(C3)CN(c3ncc(C(=O)N[C@H]5C(C)(C)[C@H](Oc6ccc(C#N)c(Cl)c6)C5(C)C)cn3)C4)cc1)=N[C@@H](Cc1ncco1)c1nnc(C)n1-2` [Compound I-182], the concentration for 50% growth inhibition (GI50) in experiment [1], in experiment [2], in experiment [3] and in experiment [4] was less than 500 nM throughout.
As to `Cc1sc2c(c1C)C(c1ccc(O[C@H]3CCOC34CN(c3ncc(C(=O)N[C@H]5C(C)(C)[C@H](Oc6ccc(C#N)c(Cl)c6)C5(C)C)cn3)C4)cc1)=N[C@@H](Cc1ncco1)c1nnc(C)n1-2` [Compound I-183], the GI50 (commonly the concentration giving 50% growth inhibition) is less than 500 nM in experiment [1], less than 500 nM in experiment [2], less than 500 nM in experiment [3] and 500 to 1500 nM in experiment [4].
In the case of `Cc1sc2c(c1C)C(c1ccc(O[C@@H]3CCOC34CN(c3ncc(C(=O)N[C@H]5C(C)(C)[C@H](Oc6ccc(C#N)c(Cl)c6)C5(C)C)cn3)C4)cc1)=N[C@@H](Cc1ncco1)c1nnc(C)n1-2` [Compound I-184], the GI50 in experiment [1], in experiment [2], in experiment [3] and in experiment [4] was less than 500 nM in each case.
`Cc1sc2c(c1C)C(c1ccc(O[C@@H]3COC4(CCN(c5ncc(C(=O)N[C@H]6C(C)(C)[C@H](Oc7ccc(C#N)c(Cl)c7)C6(C)C)cn5)C4)C3)cc1)=N[C@@H](Cc1ncco1)c1nnc(C)n1-2` (some centres unmarked) [Compound I-185]: the concentration for 50% growth inhibition (GI50) in experiment [1], in experiment [2], in experiment [3] and in experiment [4] was less than 500 nM each time.
As for `Cc1sc2c(c1C)C(c1ccc(O[C@H]3CO[C@@]4(CCCN(c5ncc(C(=O)N[C@H]6C(C)(C)[C@H](Oc7ccc(C#N)c(Cl)c7)C6(C)C)cn5)C4)C3)cc1)=N[C@@H](Cc1ncco1)c1nnc(C)n1-2` [Compound I-186], the GI50 in experiment [1] was less than 500 nM; in experiment [2], less than 500 nM; in experiment [3], less than 500 nM; in experiment [4] it was 500 to 1500 nM.
For `Cc1sc2c(c1C)C(c1ccc(O[C@@H]3CO[C@]4(CCCN(c5ncc(C(=O)N[C@H]6C(C)(C)[C@H](Oc7ccc(C#N)c(Cl)c7)C6(C)C)cn5)C4)C3)cc1)=N[C@@H](Cc1ncco1)c1nnc(C)n1-2` [Compound I-187], the GI50 in experiment [1], in experiment [2], in experiment [3] and in experiment [4] was less than 500 nM each time.
With `Cc1sc2c(c1C)C(c1ccc(O[C@@H]3CO[C@@]4(CCCN(c5ncc(C(=O)N[C@H]6C(C)(C)[C@H](Oc7ccc(C#N)c(Cl)c7)C6(C)C)cn5)C4)C3)cc1)=N[C@@H](Cc1ncco1)c1nnc(C)n1-2` [Compound I-188], the GI50 in experiment [1], in experiment [2], in experiment [3] and in experiment [4] was less than 500 nM throughout.
For `Cc1sc2c(c1C)C(c1ccc(OC3CC(CC4CCN(c5ncc(C(=O)N[C@H]6C(C)(C)[C@H](Oc7ccc(C#N)c(Cl)c7)C6(C)C)cn5)CC4)C3)cc1)=N[C@@H](Cc1ncco1)c1nnc(C)n1-2` (some centres unmarked) [Compound I-189], the GI50 in experiment [1] was less than 500 nM; in experiment [2], greater than 3000 nM; in experiment [3] it was less than 500 nM; in experiment [4], less than 500 nM.
For the molecule `Cc1sc2c(c1C)C(c1ccc(O[C@H]3C[C@H](OC4CCN(c5ncc(C(=O)N[C@H]6C(C)(C)[C@H](Oc7ccc(C#N)c(Cl)c7)C6(C)C)cn5)CC4)C3)cc1)=N[C@@H](Cc1ncco1)c1nnc(C)n1-2` [Compound I-190], the GI50 in experiment [1] is less than 500 nM; in experiment [2], greater than 3000 nM; in experiment [3], less than 500 nM; in experiment [4] it was less than 500 nM.
For `Cc1sc2c(c1C)C(c1ccc(O[C@@H]3CCC4(C3)CN(c3ncc(C(=O)N[C@H]5C(C)(C)[C@H](Oc6ccc(C#N)c(Cl)c6)C5(C)C)cn3)C4)cc1)=N[C@@H](Cc1ncco1)c1nnc(C)n1-2` [Compound I-191], the GI50 in experiment [1], in experiment [2], in experiment [3] and in experiment [4] was less than 500 nM throughout.
In the case of `Cc1sc2c(c1C)C(c1ccc(O[C@H]3CO[C@]4(CCCN(c5ncc(C(=O)N[C@H]6C(C)(C)[C@H](Oc7ccc(C#N)c(Cl)c7)C6(C)C)cn5)C4)C3)cc1)=N[C@@H](Cc1ncco1)c1nnc(C)n1-2` [Compound I-192], the GI50 in experiment [1] was less than 500 nM; in experiment [2], 500 to 1500 nM; in experiment [3], 500 to 1500 nM; in experiment [4], 500 to 1500 nM.
Consider `Cc1sc2c(c1C)C(c1ccc(O[C@H]3C[C@@]4(CCCN(c5ncc(C(=O)N[C@H]6C(C)(C)[C@H](Oc7ccc(C#N)c(Cl)c7)C6(C)C)cn5)C4)C3)cc1)=N[C@@H](Cc1ncco1)c1nnc(C)n1-2` [Compound I-193], for which the GI50 in experiment [1] is less than 500 nM; in experiment [2], 500 to 1500 nM; in experiment [3] it was 500 to 1500 nM; in experiment [4], less than 500 nM.
In the case of `Cc1sc2c(c1C)C(c1ccc(O[C@H]3C[C@]4(CCCN(c5ncc(C(=O)N[C@H]6C(C)(C)[C@H](Oc7ccc(C#N)c(Cl)c7)C6(C)C)cn5)C4)C3)cc1)=N[C@@H](Cc1ncco1)c1nnc(C)n1-2` [Compound I-194], the GI50 in experiment [1] is less than 500 nM; in experiment [2], less than 500 nM; in experiment [3] it was less than 500 nM; in experiment [4], 500 to 1500 nM.
For the molecule `Cc1sc2c(c1C)C(c1ccc(O[C@H]3COC4(CCN(c5ncc(C(=O)N[C@H]6C(C)(C)[C@H](Oc7ccc(C#N)c(Cl)c7)C6(C)C)cn5)C4)C3)cc1)=N[C@@H](Cc1ncco1)c1nnc(C)n1-2` (some centres unmarked) [Compound I-195], the GI50 in experiment [1], in experiment [2], in experiment [3] and in experiment [4] was less than 500 nM throughout.
With `Cc1sc2c(c1C)C(c1ccc(OC3CC4(CCN(c5ccc(C(=O)N[C@H]6C(C)(C)[C@H](Oc7ccc(C#N)c(Cl)c7)C6(C)C)cc5)CC4)C3)cc1)=N[C@@H](Cc1ncco1)c1nnc(C)n1-2` [Compound I-196], the GI50 was less than 500 nM in experiment [1], greater than 3000 nM in experiment [2], 500 to 1500 nM in experiment [3] and less than 500 nM in experiment [4].
On to `Cc1sc2c(c1C)C(c1ccc(OC3CC4(C3)CN(c3ncc(C(=O)N[C@H]5C(C)(C)[C@H](Oc6ccc(C#N)c(Cl)c6)C5(C)C)cn3)C4)cc1)=N[C@H](Cc1ncco1)c1nnc(C)n1-2` [Compound I-199], for which the GI50 in experiment [1], in experiment [2], in experiment [3] and in experiment [4] was less than 500 nM in each case.
As to `Cc1sc2c(c1C)C(c1ccc(O[C@H]3CCC4(CCCN(c5ncc(C(=O)N[C@H]6C(C)(C)[C@H](Oc7ccc(C#N)c(Cl)c7)C6(C)C)cn5)C4)C3)cc1)=N[C@@H](Cc1ncco1)c1nnc(C)n1-2` (some centres unmarked) [Compound I-200], the GI50 in experiment [1] is less than 500 nM; in experiment [2] it was 500 to 1500 nM; in experiment [3], less than 500 nM; in experiment [4], 500 to 1500 nM.
Regarding `Cc1sc2c(c1C)C(c1ccc(O[C@@H]3CC[C@@]4(CCCN(c5ncc(C(=O)N[C@H]6C(C)(C)[C@H](Oc7ccc(C#N)c(Cl)c7)C6(C)C)cn5)C4)C3)cc1)=N[C@@H](Cc1ncco1)c1nnc(C)n1-2` [Compound I-201], the GI50 in experiment [1] is less than 500 nM; in experiment [2], greater than 3000 nM; in experiment [3], less than 500 nM; in experiment [4], less than 500 nM.
In the case of `Cc1sc2c(c1C)C(c1ccc(O[C@@H]3CC[C@]4(CCCN(c5ncc(C(=O)N[C@H]6C(C)(C)[C@H](Oc7ccc(C#N)c(Cl)c7)C6(C)C)cn5)C4)C3)cc1)=N[C@@H](Cc1ncco1)c1nnc(C)n1-2` [Compound I-202], the GI50 in experiment [1] is less than 500 nM; in experiment [2], greater than 3000 nM; in experiment [3] it was less than 500 nM; in experiment [4], 500 to 1500 nM.
With `Cc1sc2c(c1C)C(c1ccc(OC[C@H]3CC[C@@]4(CCCN(c5ncc(C(=O)N[C@H]6C(C)(C)[C@H](Oc7ccc(C#N)c(Cl)c7)C6(C)C)cn5)C4)C3)cc1)=N[C@@H](Cc1ncco1)c1nnc(C)n1-2` [Compound I-203], the GI50 was less than 500 nM in experiment [1], greater than 3000 nM in experiment [2], less than 500 nM in experiment [3] and less than 500 nM in experiment [4].
Take `Cc1sc2c(c1C)C(c1ccc(OC[C@H]3CC[C@]4(CCCN(c5ncc(C(=O)N[C@H]6C(C)(C)[C@H](Oc7ccc(C#N)c(Cl)c7)C6(C)C)cn5)C4)C3)cc1)=N[C@@H](Cc1ncco1)c1nnc(C)n1-2` [Compound I-204]: the 50% growth inhibitory concentration (GI50) in experiment [1] was less than 500 nM; in experiment [2], greater than 3000 nM; in experiment [3] it was 500 to 1500 nM; in experiment [4], less than 500 nM.
On to `Cc1sc2c(c1C)C(c1ccc(Oc3ncc(C(=O)N[C@H]4C(C)(C)[C@H](Oc5ccc(C#N)c(Cl)c5)C4(C)C)cn3)cc1)=N[C@@H](Cc1ncco1)c1nnc(C)n1-2` [Compound I-205], for which the GI50 in experiment [1] is less than 500 nM; in experiment [2], 500 to 1500 nM; in experiment [3] it was less than 500 nM; in experiment [4] it was 500 to 1500 nM.

The record behind these values is patent US20260062422A1 (Halda Therapeutics OpCo, Inc., priority 2022, published 2026).
